US7671085B2, “Non-steroidal farnesoid X receptor modulators and methods for the use thereof” (The Salk Institute for Biological Studies, priority 2002, dated 2010)

How the values were obtained:
[1] = test system: IBABP mRNA in HT29-FXRFL cells; assay: Northern blot of IBABP mRNA in HT29 stable cell lines; format: cell-based, Human
Protocol: HepG2 or HT29-derived cell lines were typically cultured in medium containing superstripped FBS for 24 hr before the addition of a ligand or DMSO (vehicle) for an additional 24-48 hr. Total RNA was isolated using TRIzol reagent and was resolved (10 μg/lane) on a 1% agarose, 2.2 M formaldehyde gel, transferred to a nylon membrane (Hybond N^+; Amersham Biosciences, Inc.), and cross-linked to the membrane with UV light.
cDNA probes were radiolabeled with [α-^32P]dCTP using the highprime labeling kit (Amersham Biosciences, Inc.). Membranes were hybridized using the QuikHyb hybridization solution (Stratagene, La Jolla, Calif.) according to the manufacturer's protocol. Blots were normalized for variations of RNA loading by hybridization to a control probe, either, 18 S ribosomal cDNA, or the ribosomal protein 36B4. The RNA levels were quantitated using a PhosphorImager (ImageQuant software; Molecular Dynamics, Inc., Sunnyvale, Calif.) in addition to being exposed to X-ray film.
Human colon cells HT29 (FXR null until differentiated) were infected with retroviral vectors that expressed either FXR constructs and the puromycin-resistant gene or the puromycin-resistant gene alone. Puromycin resistant cells were isolated and pooled cell populations were propagated that harbored either the vector alone (HT29-BABE), overexpressed FXR full length (HT29-FXRFL), a non-functional FXR truncated at the AF2 region (HT29-FXR-AF2), or a constitutively active FXR that has the VP16 activation domain fused N-terminal of the protein (HT29-VP16-FXR). Confirmation of the successful establishment of the different stable cell lines was established via northern blot analysis of FXR message levels in the cells.
These observations verify the usefulness of this colon cell model system for studying the induction of FXR target genes.
The ability of the novel compounds identified herein to induce IBABP gene expression in this cell system was also examined. Total RNA from HT29 stable cells treated overnight with fexaramine, fexarine and fexarene was probed for IBABP gene expression.

FXR = molecular target: T1, FXR (Homo sapiens, UniProt Q96RI1); assay: cell-based FXR transcription assay, FXR responsive promoter linked to luciferase reporter; settings: for RE^a: footnote a not given; for FXR activation, in words: cell-based reporter assay, SAR discussion
T1 construct: using a full length FXR on a natural response element; expressed in transfected cells
T1 sequence (Q96RI1 1-486): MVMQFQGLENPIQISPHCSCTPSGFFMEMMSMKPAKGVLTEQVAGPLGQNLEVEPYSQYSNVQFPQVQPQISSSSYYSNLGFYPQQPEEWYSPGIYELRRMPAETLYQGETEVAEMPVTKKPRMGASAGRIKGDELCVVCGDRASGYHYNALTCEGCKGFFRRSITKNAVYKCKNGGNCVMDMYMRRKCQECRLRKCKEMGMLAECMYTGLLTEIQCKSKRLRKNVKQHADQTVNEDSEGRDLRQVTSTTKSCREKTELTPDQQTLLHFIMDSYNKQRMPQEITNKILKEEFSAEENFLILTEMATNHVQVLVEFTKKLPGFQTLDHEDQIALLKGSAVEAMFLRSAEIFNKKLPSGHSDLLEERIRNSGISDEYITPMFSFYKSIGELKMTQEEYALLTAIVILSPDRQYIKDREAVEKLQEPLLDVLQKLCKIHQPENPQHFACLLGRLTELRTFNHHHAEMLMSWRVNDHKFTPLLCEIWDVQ
Procedure, shortened: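 Cells co-transfected with full-length FXR and a luciferase reporter driven by a natural response element on a minimal promoter. Compound exposure ≈10 μM for 18 h before washing and luciferase read-out, in 384-well format, with CDCA as reference activator. EC50 derived from transcriptional activity.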

Row | Structure (SMILES) | RE^a (FXR; cell-based FXR reporter assay) | FXR activation, in words (FXR) | further results
1 | C[C@H](CCC(=O)O)[C@H]1CC[C@H]2[C@@H]3[C@H](O)C[C@@H]4C[C@H](O)CC[C@]4(C)[C@H]3CC[C@]12C [CDCA, chenodeoxycholic acid, reference compound] | – | – | induction of IBABP mRNA, in words ([1]; HT29-BABE or HT29-FXR-AF2 cell lines): No induction of IBABP mRNA levels; induction of IBABP mRNA, in words ([1]; HT29-FXRFL cells): robust concentration dependent induction of IBABP mRNA; concentration for maximal induction of IBABP mRNA ([1]; HT29-FXRFL cells, overnight treatment): 100 µM; induction of IBABP mRNA, in words ([1]; HT29-VP16-FXR cells (constitutive expression)): super-induced
2 | COC(=O)/C=C/c1cccc(N(Cc2ccc(-c3ccc(OC)cc3)cc2)C(=O)C2CCCCC2)c1 [Compound 229] | 1.71 | excellent activity | –
3 | COC(=O)/C=C/c1cccc(N(Cc2ccc(-c3ccc(OC)cc3)cc2)C(=O)C(C)C)c1 [Compound 230] | 1.21 | excellent activity | –
4 | COC(=O)/C=C/c1cccc(N(Cc2ccc(-c3ccc(OC)cc3)cc2)C(=O)NC(C)C)c1 [Compound 231] | 1.18 | – | –
5 | COC(=O)/C=C/c1cccc(N(Cc2ccc(-c3cccc(Cl)c3)cc2)C(=O)C2CCCCC2)c1 [Compound 232] | 1.56 | excellent activity | –
6 | COC(=O)/C=C/c1cccc(N(Cc2ccc(-c3cccc(Cl)c3)cc2)C(=O)C(C)C)c1 [Compound 233] | 1.52 | excellent activity | EC50 (FXR; cell-based FXR reporter assay, determined with Prism 3.0): 77 nM
7 | COC(=O)/C=C/c1cccc(N(Cc2ccc(-c3cccc(Cl)c3)cc2)C(=O)NC(C)C)c1 [Compound 234] | 0.49 | – | –
8 | COC(=O)/C=C/c1cccc(N(Cc2ccc(-c3ccc(C)cc3)cc2)C(=O)C2CCCCC2)c1 [Compound 235] | 1.38 | excellent activity | –
9 | COC(=O)/C=C/c1cccc(N(Cc2ccc(-c3ccc(C)cc3)cc2)C(=O)C(C)C)c1 [Compound 236] | 1.48 | excellent activity | –
10 | COC(=O)/C=C/c1cccc(N(Cc2ccc(-c3ccc(C)cc3)cc2)C(=O)NC(C)C)c1 [Compound 237] | 0.80 | – | –
11 | COC(=O)/C=C/c1cccc(N(Cc2ccc(-c3cccc(C)c3)cc2)C(=O)C2CCCCC2)c1 [Compound 238] | 1.43 | excellent activity | –
12 | COC(=O)/C=C/c1cccc(N(Cc2ccc(-c3cccc(C)c3)cc2)C(=O)C(C)C)c1 [Compound 239] | 1.09 | – | –
13 | COC(=O)/C=C/c1cccc(N(Cc2ccc(-c3cccc(C)c3)cc2)C(=O)NC(C)C)c1 [Compound 240] | 0.53 | – | –
14 | COC(=O)/C=C/c1cccc(N(Cc2ccc(-c3cc(Cl)ccc3OC)cc2)C(=O)C2CCCCC2)c1 [Compound 241] | 1.16 | – | –
15 | COC(=O)/C=C/c1cccc(N(Cc2ccc(-c3cc(Cl)ccc3OC)cc2)C(=O)C(C)C)c1 [Compound 242] | 0.79 | – | –
16 | COC(=O)/C=C/c1cccc(N(Cc2ccc(-c3cc(Cl)ccc3OC)cc2)C(=O)NC(C)C)c1 [Compound 243] | 0.17 | – | –
17 | COC(=O)/C=C/c1cccc(N(Cc2ccc(-c3ccc4c(c3)OCO4)cc2)C(=O)C(C)C)c1 [Compound 245] | 1.25 | excellent activity | –
18 | COC(=O)/C=C/c1cccc(N(Cc2ccc(-c3ccc4c(c3)OCO4)cc2)C(=O)NC(C)C)c1 [Compound 246] | 1.51 | excellent activity | –

Row | Structure (SMILES) | RE^a (FXR; cell-based FXR reporter assay) | FXR activation, in words (FXR) | further results
19 | COC(=O)/C=C/c1cccc(N(Cc2ccc(-c3ccc(F)c(Cl)c3)cc2)C(=O)C2CCCCC2)c1 [Compound 247] | 1.87 | excellent activity | –
20 | COC(=O)/C=C/c1cccc(N(Cc2ccc(-c3ccc(F)c(Cl)c3)cc2)C(=O)C(C)C)c1 [Compound 248] | 1.64 | – | –
21 | COC(=O)/C=C/c1cccc(N(Cc2ccc(-c3ccc(F)c(Cl)c3)cc2)C(=O)NC(C)C)c1 [Compound 249] | 0.41 | – | –
22 | COC(=O)/C=C/c1cccc(N(Cc2ccc(-c3ccc(OC(F)(F)F)cc3)cc2)C(=O)C2CCCCC2)c1 [Compound 250] | 1.04 | – | –
23 | COC(=O)/C=C/c1cccc(N(Cc2ccc(-c3ccc(OC(F)(F)F)cc3)cc2)C(=O)C(C)C)c1 [Compound 251] | 0.78 | – | –
24 | COC(=O)/C=C/c1cccc(N(Cc2ccc(-c3ccc(OC(F)(F)F)cc3)cc2)C(=O)NC(C)C)c1 [Compound 252] | 0.21 | – | –
25 | COC(=O)/C=C/c1cccc(N(Cc2ccc(-c3cccc(OC(F)(F)F)c3)cc2)C(=O)C2CCCCC2)c1 [Compound 253] | 0.84 | – | –
26 | COC(=O)/C=C/c1cccc(N(Cc2ccc(-c3cccc(OC(F)(F)F)c3)cc2)C(=O)C(C)C)c1 [Compound 254] | 0.69 | – | –
27 | COC(=O)/C=C/c1cccc(N(Cc2ccc(-c3cccc(OC(F)(F)F)c3)cc2)C(=O)NC(C)C)c1 [Compound 255] | 0.09 | – | –
28 | COC(=O)/C=C/c1cccc(N(Cc2ccc(-c3c(OC)cccc3OC)cc2)C(=O)C2CCCCC2)c1 [Compound 256] | 0.12 | excellent activity | –
29 | COC(=O)/C=C/c1cccc(N(Cc2ccc(-c3c(OC)cccc3OC)cc2)C(=O)C(C)C)c1 [Compound 257] | 0.10 | excellent activity | –
30 | COC(=O)/C=C/c1cccc(N(Cc2ccc(-c3c(OC)cccc3OC)cc2)C(=O)NC(C)C)c1 [Compound 258] | 0.10 | – | –
31 | COC(=O)/C=C/c1cccc(N(Cc2ccc(-c3ccc(N(C)C)cc3)cc2)C(=O)C(C)C)c1 [Compound 260] | 1.07 | excellent activity | –
32 | COC(=O)/C=C/c1cccc(N(Cc2ccc(-c3ccc(N(C)C)cc3)cc2)C(=O)NC(C)C)c1 [Compound 261] | 1.01 | – | –
33 | COC(=O)/C=C/c1cccc(N(Cc2ccc(-c3ccc(C(C)(C)C)cc3)cc2)C(=O)C2CCCCC2)c1 [Compound 262] | 1.38 | – | –
34 | COC(=O)/C=C/c1cccc(N(Cc2ccc(-c3ccc(C(C)(C)C)cc3)cc2)C(=O)C(C)C)c1 [Compound 263] | 0.59 | – | –
35 | COC(=O)/C=C/c1cccc(N(Cc2ccc(-c3ccc(C(C)(C)C)cc3)cc2)C(=O)NC(C)C)c1 [Compound 264] | 1.02 | – | –
